Assay results reported in patent US20240246908A1 (ORION CORPORATION, priority 2021, published 2024).
pIC50: −log10 of the molar value.

System: YAP-TEAD
Assay: TEAD inhibition, Hippo Pathway TEAD Reporter MCF-7 luciferase assay
Type: cell-based
Details: Homo sapiens, MCF7, 24 h, Hippo Pathway TEAD Reporter MCF-7 cells, luciferase activity after 24 h; read-out: IC50 of the test compounds on YAP-TEAD inhibition (Group)
Outline: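 IC50 derived from ONE-Glo luciferase luminescence after 24 h compound exposure (11 concentrations in quadruplicate, 0.1% DMSO control). Reporter: MCF-7 line expressing firefly luciferase under TEAD elements, constitutively activated by nuclear YAP1.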

| pIC50 | Compound |
| --- | --- |
| 6.52 to 7.30 | COc1ccc(OC2CCCC(F)(F)CC2)cc1NC(=O)[C@@H]1CCC(=O)N1C (stereo partly drawn) [Compound 207, (2S)—N-(5-((4,4-Difluorocycloheptyl)oxy)-2-methoxyphenyl)-1-methyl-5-oxopyrrolidine-2-carboxamide] |
| > 7.30 | COc1ccc(OC2CCC(C(F)(F)F)CC2)cc1NC(=O)[C@H]1COC(=O)N1C (stereo partly drawn) [Compound 208, (R)—N-(2-Methoxy-5-((4-(trifluoromethyl)cyclohexyl)oxy)phenyl)-3-methyl-2-oxooxazolidine-4-carboxamide] |
| > 7.30 | COc1ccc(O[C@H]2CC[C@@H](C(F)(F)F)CC2)cc1NC(=O)[C@H]1CCC(=O)N1C [Compound 209, (R)—N-(2-Methoxy-5-(((cis)-4-(trifluoromethyl)cyclohexyl)oxy)phenyl)-1-methyl-5-oxopyrrolidine-2-carboxamide] |
| > 7.30 | COc1ccc(O[C@H]2CC[C@@H](C(F)(F)F)CC2)cc1NC(=O)[C@@H]1CCC(=O)N1C [Compound 210, (S)—N-(2-Methoxy-5-(((cis)-4-(trifluoromethyl)cyclohexyl)oxy)phenyl)-1-methyl-5-oxopyrrolidine-2-carboxamide] |
| 6.52 to 7.30 | COc1ccc(Oc2ccc(C(F)F)cn2)cc1NC(=O)C1CCC(=O)N1C (centres unmarked) [Compound 211, N-(5-((5-(Difluoromethyl)pyridin-2-yl)oxy)-2-methoxyphenyl)-1-methyl-5-oxopyrrolidine-2-carboxamide] |
| 6.52 to 7.30 | COc1ccc(Oc2ccc(C(F)F)cn2)cc1NC(=O)C1CNC(=O)N1C (centres unmarked) [Compound 212, N-(5-((5-(Difluoromethyl)pyridin-2-yl)oxy)-2-methoxyphenyl)-3-methyl-2-oxoimidazolidine-4-carboxamide] |
| > 7.30 | CN1C(=O)NCC1C(=O)Nc1cc(Oc2ccc(C(F)F)cc2)cc2c1OCC2 (centres unmarked) [Compound 213, N-(5-(4-(Difluoromethyl)phenoxy)-2,3-dihydrobenzofuran-7-yl)-3-methyl-2-oxoimidazolidine-4-carboxamide] |
| > 7.30 | CN1C(=O)CC[C@H]1C(=O)Nc1cc(Oc2ccc(C(F)F)cc2)cc2c1OCC2 [Compound 214, (S)—N-(5-(4-(Difluoromethyl)phenoxy)-2,3-dihydrobenzofuran-7-yl)-1-methyl-5-oxopyrrolidine-2-carboxamide] |
| > 7.30 | CN1C(=O)CC[C@@H]1C(=O)Nc1cc(Oc2ccc(C(F)F)cc2)cc2c1OCC2 [Compound 215, (R)—N-(5-(4-(Difluoromethyl)phenoxy)-2,3-dihydrobenzofuran-7-yl)-1-methyl-5-oxopyrrolidine-2-carboxamide] |
| > 7.30 | CN1C(=O)NC[C@H]1C(=O)Nc1cc(Oc2ccc(C(F)(F)F)cn2)cc2ccoc12 [Compound 216, (S)-3-Methyl-2-oxo-N-(5-((5-(trifluoromethyl)pyridin-2-yl)oxy)benzofuran-7-yl)imidazolidine-4-carboxamide] |
| > 7.30 | CN1C(=O)NC[C@@H]1C(=O)Nc1cc(Oc2ccc(C(F)(F)F)cn2)cc2ccoc12 [Compound 217, (R)-3-Methyl-2-oxo-N-(5-((5-(trifluoromethyl)pyridin-2-yl)oxy)benzofuran-7-yl)imidazoledine-4-carboxamide] |
| 6.52 to 7.30 | CN1C(=O)NC[C@H]1C(=O)Nc1cc(Oc2ccc(C(F)(F)F)cn2)cc2c1ncn2C [Compound 218, (S)-3-Methyl-N-(1-methyl-6-((5-(trifluoromethyl)pyridin-2-yl)oxy)-1H-benzo-[d]imidazol-4-yl)-2-oxoimidazolidine-4-carboxamide] |
| > 7.30 | COc1ccc(Oc2ccc(Cl)c(Cl)c2)cc1NC(=O)C1CCC(=O)N1C (centres unmarked) [Compound 222, N-(5-(3,4-Dichlorophenoxy)-2-methoxyphenyl)-1-methyl-5-oxopyrrolidine-2-carboxamide] |
| > 7.30 | COc1ccc(Oc2ccc(F)c(Cl)c2)cc1NC(=O)C1CCC(=O)N1C (centres unmarked) [Compound 223, N-(5-(3-Chloro-4-fluorophenoxy)-2-methoxyphenyl)-1-methyl-5-oxo-pyrrolidine-2-carboxamide] |
